Assay results published in patent US7390812B2, “N, N'-disubstituted piperazine compounds and their use as analgesics” (Gruenenthal GmbH, priority 2001, dated 2008).
pKd: −log10 of the molar value.

Target: T1, NA transporter (Rattus norvegicus, UniProt Q63380)
T1 construct: synaptosomes were freshly isolated from rat brain regions; from tissue; host or cells: rat hypothalamus synaptosomes (P2 fraction)
Assay: Noradrenaline reuptake inhibition (NA uptake inhibition) in synaptosomes
Format: biochemical
Details: synaptosomes from hypothalamus of male rat brains
Description: In order to be able to carry out these in vitro studies, synaptosomes were freshly isolated from rat brain regions. A so-called “P2” fraction was used, which was prepared according to the instructions given by Gray and Whittaker (E. G. Gray and V. P. Whittaker (1962) J. Anat. 76, 79-88).

T1 sequence (Q63380 1-617): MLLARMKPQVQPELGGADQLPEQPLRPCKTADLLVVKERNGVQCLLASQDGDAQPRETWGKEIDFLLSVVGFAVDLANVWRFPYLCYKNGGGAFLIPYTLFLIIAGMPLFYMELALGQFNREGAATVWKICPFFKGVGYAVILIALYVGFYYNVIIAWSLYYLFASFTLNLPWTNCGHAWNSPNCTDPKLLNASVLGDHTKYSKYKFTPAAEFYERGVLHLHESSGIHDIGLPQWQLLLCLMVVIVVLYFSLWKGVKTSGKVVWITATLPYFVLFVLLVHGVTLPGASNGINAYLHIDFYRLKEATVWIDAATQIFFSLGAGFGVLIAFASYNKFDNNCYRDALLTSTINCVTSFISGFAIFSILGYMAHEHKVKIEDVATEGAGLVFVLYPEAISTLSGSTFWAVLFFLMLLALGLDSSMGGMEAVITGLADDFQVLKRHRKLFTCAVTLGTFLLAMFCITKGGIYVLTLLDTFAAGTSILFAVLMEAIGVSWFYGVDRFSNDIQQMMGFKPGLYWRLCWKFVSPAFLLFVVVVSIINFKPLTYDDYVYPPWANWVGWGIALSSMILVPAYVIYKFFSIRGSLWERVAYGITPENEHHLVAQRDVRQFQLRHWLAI

inhibition at 10 µM [%]	Compound
51	CN1CCN(CC2CCCCC2(O)c2ccc(F)cc2)CC1 (stereo not shown) [1-(4-Fluoro-phenyl)-2-(4-methyl-piperazin-1-ylmethyl)-cyclohexanol]
55	CCC(O)(Cc1cccc(C)c1)C(C)CN1CCN(c2cccc(Cl)c2)CC1 (stereo not shown) [1-[4-(3-Chloro-phenyl)-piperazin-1-yl]-2-methyl-3-(3-methyl-benzyl)-pentan-3-ol]
65	CCC(O)(c1cccc(C(F)(F)F)c1)C(C)CN1CCN(c2cccc(Cl)c2)CC1 (stereo not shown) [1-[4-(3-Chloro-phenyl)-piperazin-1-yl]-2-methyl-3-(3-trifluoromethyl-phenyl)-pentan-3-ol]
42	CCC(O)(c1cccc(C)c1)C(C)CN1CCN(c2cccc(Cl)c2)CC1 (stereo not shown) [1-[4-(3-Chloro-phenyl)-piperazin-1-yl]-2-methyl-3-m-tolyl-pentan-3-ol]
41	CCC(O)(c1ccc(C)cc1)C(C)CN1CCN(c2cccc(Cl)c2)CC1 (stereo not shown) [1-[4-(3-Chloro-phenyl)-piperazin-1-yl]-2-methyl-3-p-tolyl-pentan-3-ol]
61	CCC(O)(c1ccccc1)C(C)CN1CCN(c2cccc(Cl)c2)CC1 (stereo not shown) [1-[4-(3-Chloro-phenyl)-piperazin-1-yl]-2-methyl-3-phenyl-pentan-3-ol]
45	CCC(O)(c1cccs1)C(C)CN1CCN(c2cccc(Cl)c2)CC1 (stereo not shown) [1-[4-(3-Chloro-phenyl)-piperazin-1-yl]-2-methyl-3-thiophen-2-yl-pentan-3-ol]
50	CCC(O)(Cc1cccc(F)c1)C(C)CN1CCN(c2cccc(Cl)c2)CC1 (stereo not shown) [1-[4-(3-Chloro-phenyl)-piperazin-1-yl]-3-(3-fluoro-benzyl)-2-methyl-pentan-3-ol]
53	CCC(O)(c1cccc(F)c1)C(C)CN1CCN(c2cccc(Cl)c2)CC1 (stereo not shown) [1-[4-(3-Chloro-phenyl)-piperazin-1-yl]-3-(3-fluoro-phenyl)-2-methyl-pentan-3-ol]
39	CCC(O)(c1ccc(F)c(C)c1)C(C)CN1CCN(c2cccc(Cl)c2)CC1 (stereo not shown) [1-[4-(3-Chloro-phenyl)-piperazin-1-yl]-3-(4-fluoro-3-methyl-phenyl)-2-methyl-pentan-3-ol]
53	CCC(O)(c1ccc(F)cc1)C(C)CN1CCN(c2cccc(Cl)c2)CC1 (stereo not shown) [1-[4-(3-Chloro-phenyl)-piperazin-1-yl]-3-(4-fluoro-phenyl)-2-methyl-pentan-3-ol]
45	CCC(O)(c1ccc(OC)cc1)C(C)CN1CCN(c2cccc(Cl)c2)CC1 (stereo not shown) [1-[4-(3-Chloro-phenyl)-piperazin-1-yl]-3-(4-methoxy-phenyl)-2-methyl-pentan-3-ol]
73	CCC(O)(C(C)CN1CCN(c2cccc(Cl)c2)CC1)C1CCCCC1 (stereo not shown) [1-[4-(3-Chloro-phenyl)-piperazin-1-yl]-3-cyclohexyl-2-methyl-pentan-3-ol]
52	CCC(O)(CCc1ccccc1)C(C)CN1CCN(c2cccc(Cl)c2)CC1 (stereo not shown) [1-[4-(3-Chloro-phenyl)-piperazin-1-yl]-3-ethyl-2-methyl-5-phenyl-pentan-3-ol]
55	CCC(O)(CCCc1ccccc1)C(C)CN1CCN(c2cccc(Cl)c2)CC1 (stereo not shown) [1-[4-(3-Chloro-phenyl)-piperazin-1-yl]-3-ethyl-2-methyl-6-phenyl-hexan-3-ol]
53	CCC(O)(c1cccc(Cl)c1)C(C)CN1CCN(c2cccc(Cl)c2)CC1 (stereo not shown) [3-(3-Chloro-phenyl)-1-[4-(3-chloro-phenyl)-piperazin-1-yl]-2-methyl-pentan-3-ol]
39	CCC(O)(Cc1ccc(Cl)cc1)C(C)CN1CCN(c2cccc(Cl)c2)CC1 (stereo not shown) [3-(4-Chloro-benzyl)-1-[4-(3-chloro-phenyl)-piperazin-1-yl]-2-methyl-pentan-3-ol]
54	CCC(O)(c1ccc(Cl)cc1)C(C)CN1CCN(c2cccc(Cl)c2)CC1 (stereo not shown) [3-(4-Chloro-phenyl)-1-[4-(3-chloro-phenyl)-piperazin-1-yl]-2-methyl-pentan-3-ol]

System: binding site 2 of the sodium channel
Assay: Binding investigations at sodium channel binding site 2 (BTX binding)
Details: 10 μM; rat cerebrocortex synaptosomes; [3H]-Batrachotoxinin A20 α-benzoate 10 nM; 37° C., 120 min
Description: Binding Investigations at Sodium Channel Binding Site 2
Binding site 2 of the sodium channel is the so-called batrachotoxin (BTX) binding site. [^3H]-Batrachotoxinin A20 α-benzoate (10 nM in the batch) was used as ligand. These ion channel particles (synaptosomes) were enriched from rat cerebrocortex after Gray and Whittaker (E. G. Gray and V. P. Whittaker (1962) J. Anat. 76, 79-88). The radioactivity measured in the presence of veratridine (0.3 mM in the batch) is defined as non-specific binding.
The assay conditions were as published by Pauwels, Leysen and Laduron (P. J. Pauwels, J. E. Leysen and P. M. Laduron (1986) Eur. J. Pharmacol. 124, 291-298). Incubation at 37° C. for 120 min.

Compound	BTX binding at 10 μM [%] inhibition [%]
CN1CCN(CC2CCCCC2(O)c2ccc(Cl)cc2Cl)CC1 (stereo not shown) [1-(2,4-Dichloro-phenyl)-2-(4-methyl-piperazin-1-ylmethyl)-cyclohexanol]	55
COc1ccc(C2(O)CCCCCCC2CN2CCN(C)CC2)cc1 (stereo not shown) [1-(4-Methoxy-phenyl)-2-(4-methyl-piperazin-1-ylmethyl)-cyclooctanol]	42
CN1CCN(CC2CCCCCC2(O)c2ccc(C(C)(C)C)cc2)CC1 (stereo not shown) [1-(4-tert-Butyl-phenyl)-2-(4-methyl-piperazin-1-ylmethyl)-cycloheptanol]	80
CN1CCN(CC2CCCCCCC2(O)c2ccc(C(C)(C)C)cc2)CC1 (stereo not shown) [1-(4-tert-Butyl-phenyl)-2-(4-methyl-piperazin-1-ylmethyl)-cyclooctanol]	64
CN1CCN(CC2CCCCCC2(O)Cc2ccccc2)CC1 (stereo not shown) [1-Benzyl-2-(4-methyl-piperazin-1-ylmethyl)-cycloheptanol]	86
CN1CCN(CC2CCCCC2(O)Cc2ccccc2)CC1 (stereo not shown) [1-Benzyl-2-(4-methyl-piperazin-1-ylmethyl)-cyclohexanol]	71
CN1CCN(CC2CCCCCCC2(O)Cc2ccccc2)CC1 (stereo not shown) [1-Benzyl-2-(4-methyl-piperazin-1-ylmethyl)-cyclooctanol]	75
CN1CCN(CC2CCCCCC2(O)C2CCCC2)CC1 (stereo not shown) [1-Cyclopentyl-2-(4-methyl-piperazin-1-ylmethyl)-cycloheptanol]	55
CN1CCN(CC2CCCCC2(O)C2CCCC2)CC1 (stereo not shown) [1-Cyclopentyl-2-(4-methyl-piperazin-1-ylmethyl)-cyclohexanol]	49
CN1CCN(CC2CCCCCCC2(O)C2CCCC2)CC1 (stereo not shown) [1-Cyclopentyl-2-(4-methyl-piperazin-1-ylmethyl)-cyclooctanol]	48
CN1CCN(CC2CCCCC2(O)CCCc2ccccc2)CC1 (stereo not shown) [2-(4-Methyl-piperazin-1-ylmethyl)-1-(3-phenyl-propyl)-cyclohexanol]	80
CN1CCN(CC2CCCCCCC2(O)CCCc2ccccc2)CC1 (stereo not shown) [2-(4-Methyl-piperazin-1-ylmethyl)-1-(3-phenyl-propyl)-cyclooctanol]	87
Cc1cccc(C2(O)CCCCCC2CN2CCN(C)CC2)c1 (stereo not shown) [2-(4-Methyl-piperazin-1-ylmethyl)-1-m-tolyl-cycloheptanol]	44
Cc1ccccc1C1(O)CCCCC1CN1CCN(C)CC1 (stereo not shown) [2-(4-Methyl-piperazin-1-ylmethyl)-1-o-tolyl-cyclohexanol]	50
CN1CCN(CC2CCCCCCC2(O)c2cccs2)CC1 (stereo not shown) [2-(4-Methyl-piperazin-1-ylmethyl)-1-thiophen-2-yl-cyclooctanol]	64
CN1CCN(CC2CCCCC2(O)C2CCCCC2)CC1 (stereo not shown) [2-(4-Methyl-piperazin-1-ylmethyl)-bicyclohexyl-1-ol]	63
CCC(O)(c1ccccc1C)C(C)CN1CCN(C)CC1 (stereo not shown) [2-Methyl-1-(4-methyl-piperazin-1-yl)-3-o-tolyl-pentan-3-ol]	43
CCC(O)(c1ccc(C)cc1)C(C)CN1CCN(C)CC1 (stereo not shown) [2-Methyl-1-(4-methyl-piperazin-1-yl)-3-p-tolyl-pentan-3-ol]	48
CCC(O)(c1ccccc1)C(C)CN1CCN(C)CC1 (stereo not shown) [2-Methyl-1-(4-methyl-piperazin-1-yl)-3-phenyl-pentan-3-ol]	58
CCC(O)(c1cccs1)C(C)CN1CCN(C)CC1 (stereo not shown) [2-Methyl-1-(4-methyl-piperazin-1-yl)-3-thiophen-2-yl-pentan-3-ol]	47
CCC(O)(c1ccc(Cl)cc1)C(C)CN1CCN(C)CC1 (stereo not shown) [3-(4-Chloro-phenyl)-2-methyl-1-(4-methyl-piperazin-1-yl)-pentan-3-ol]	59
CCC(O)(c1ccc(F)c(C)c1)C(C)CN1CCN(C)CC1 (stereo not shown) [3-(4-Fluoro-3-methyl-phenyl)-2-methyl-1-(4-methyl-piperazin-1-yl)-pentan-3-ol]	56
CCC(O)(c1ccc(C(C)(C)C)cc1)C(C)CN1CCN(C)CC1 (stereo not shown) [3-(4-tert-Butyl-phenyl)-2-methyl-1-(4-methyl-piperazin-1-yl)-pentan-3-ol]	68
CCC(O)(Cc1ccccc1)C(C)CN1CCN(C)CC1 (stereo not shown) [3-Benzyl-2-methyl-1-(4-methyl-piperazin-1-yl)-pentan-3-ol]	42
CCC(O)(C(C)CN1CCN(C)CC1)C1CCCCC1 (stereo not shown) [3-Cyclohexyl-2-methyl-1-(4-methyl-piperazin-1-yl)-pentan-3-ol]	59
CCC(O)(CCCc1ccccc1)C(C)CN1CCN(C)CC1 (stereo not shown) [3-Ethyl-2-methyl-1-(4-methyl-piperazin-1-yl)-6-phenyl-hexan-3-ol]	74
C=CC(O)(CC)C(C)CN1CCN(C)CC1 (stereo not shown) [3-Ethyl-4-methyl-5-(4-methyl-piperazin-1-yl)-pent-1-en-3-ol]	67

Same assay, conditions: radioligand; rat cerebrocortex synaptosomes; read-out: KD value for this binding site

Compound	pKd
[^3H]-Batrachotoxinin A20 α-benzoate [reference compound]	7.61
